From patent publication US4657897A, “N^6 -substituted adenosines for treating pain” (Warner-Lambert Company, priority 1985, dated 1987)

Assays:
[1] = biological target: T1, adenosine A1 receptor (Rattus norvegicus, UniProt P25099); experiment: Adenosine Receptor Binding--A1 Receptor Affinity (RBA1), [3H]-CHA binding, rat whole brain membranes; parameters: species or system rat (male Long Evans); conditions: 1.0 nM [3H]-CHA, 25° C., 1 h
T1 construct: Whole brain minus cerebellum and brainstem from male Long Evans rats; from tissue; host or cells: rat whole brain minus cerebellum and brainstem (male Long Evans), membranes
T1 sequence (P25099 1-326): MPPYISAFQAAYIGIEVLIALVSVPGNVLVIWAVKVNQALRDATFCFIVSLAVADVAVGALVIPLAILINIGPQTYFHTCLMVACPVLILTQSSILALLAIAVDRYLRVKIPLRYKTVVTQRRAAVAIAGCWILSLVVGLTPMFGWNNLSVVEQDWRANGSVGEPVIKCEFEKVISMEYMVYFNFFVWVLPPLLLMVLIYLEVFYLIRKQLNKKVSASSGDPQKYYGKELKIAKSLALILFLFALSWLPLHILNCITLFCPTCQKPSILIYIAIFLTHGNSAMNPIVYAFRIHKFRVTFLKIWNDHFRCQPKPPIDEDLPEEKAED
Description: Adenosine Receptor Binding--A1 Receptor Affinity (RBA1)
Whole brain minus cerebellum and brainstem from male Long Evans rats (150-200 g) was homogenized in 30 volumes of ice-cold 0.05M Tris-HCl buffer pH 7.7 using a Brinkman Polytron PT-10, (setting number 6 for 20 seconds) and centrifuged for ten minutes at 20,000×g (Sorvall RC-2), 4° C. The supernatant was discarded, and the pellet was resuspended and centrifuged as before. The pellet was resuspended in 20 ml Tris-HCl buffer containing two International Units/ml of adenosine deaminase (Sigma type III from calf intestinal mucosa), incubated at 37° C. for 30 minutes, then subsequently at 0° C. for ten minutes. The homogenate was again centrifuged, and the final pellet was resuspended in ice-cold 0.05M Tris-HCl buffer pH 7.7 to a concentration of 20 mg/ml original wet tissue weight and used immediately.
Tissue homogenate (10 mg/ml) was incubated in 0.05M Tris-HCl buffer pH 7.7 containing 1.0 nM [^3 H]-N^6 -cyclohexyladenosine[^3 H]-CHA) with or without test agents in triplicate for one hour at 25° C. Incubation volume was 2 ml. Unbound [^3 H]-CHA was separated by rapid filtration under reduced pressure through Whatman glass fiber (GF/B) filters. The filters were rinsed three times with 5 ml of ice cold 0.05M Tris-HCl buffer pH 7.7. The radio-labeled ligand retained on the filter was measured by liquid scintillation spectrophotometry after shaking the filters for one hour or longer on a mechanical shaker in 10 ml of Beckman Ready-Solv HP scintillation cocktail.
Nonspecific binding was defined as the binding which occurred in the presence of 1 mM theophylline. The concentration of test agent which inhibited 50% of the specific binding (IC50) was determined by nonlinear computer curve fit. The Scatchard plot was calculated by linear regression of the line obtained by plotting the amount of radioligand bound (pmoles/gram of tissue) [formula] Since the amount of radioligand bound was a small fraction of the total amount added, free radioligand was defined as the concentration (nM) of radioligand added to the incubation mixture. The Hill coefficient was calculated by linear regression of the line obtained by plotting the log of the bound radioligand vs the log of the [formula] The maximal number of binding sites (Bmax) was calculated from the Scatchard plot.

[2] = biological target: T2, adenosine A2 receptor (Rattus norvegicus, UniProt P30543); experiment: Adenosine Receptor Binding--A2 Receptor Affinity (RBA2), [3H]NECA binding, rat striatal membranes; parameters: species or system rat (mixed sex Sprague-Dawley; male Long-Evans); conditions: 4 nM [3H]NECA, 50 nM N6-cyclopentyladenosine, 25° C., 60 min
T2 construct: 5 mg original tissue weight of rat weight of rat striatal membranes; tissue Pel-Freez (Rogers, Ark.) for the brains; host or cells: rat striatum (Sprague-Dawley; Long-Evans gave essentially identical results), membranes
Description: Adenosine Receptor Binding--A2 Receptor Affinity (RBA2)
Brains from 200-500 g mixed sex Sprague-Dawley rats were purchased from Pel-Freez (Rogers, Ark.). […] Brains were thawed and then kept on ice while the striata were dissected out. Striata were disrupted in 10 vol of ice-cold 50 mM Tris.HCl (pH 7.7 at 25° C., pH 8.26 at 5° C.) (Tris) for 30 seconds in a Polytron PT-10 (Brinkmann) at setting 5. The suspension was centrifuged at 50,000 xg for ten minutes, the supernatant discarded, the pellet resuspended in 10 vol ice-cold Tris as above, recentrifuged, resuspended at 1 g/5 ml, and stored in plastic vials at -70° C. […] When needed, tissue was thawed at room temperature, disrupted in a Polytron, and kept on ice until used.
Test compounds were dissolved at 10 mM in dimethylsulfoxide on the same day as the experiment, and diluted in dimethylsulfoxide to 100× the final incubation concentration. […] [^3 H]NECA was diluted to 40 nM in Tris. […] After all additions, the rack of tubes was vortexed, and the tubes were then incubated for 60 min at 25° C. in a shaking water bath. The rack of tubes was vortexed an additional time halfway through the incubation.
Incubations were terminated by filtration through 2.4 cm GF/B filters under reduced pressure. Each tube was filtered as follows: the contents of the tube were poured onto the filter, 4 ml of ice-cold Tris were added to the tube and the contents poured onto the filter, and the filter was washed twice with 4 ml of ice-cold Tris. The filtration was complete in about twelve seconds. Filters were put in scintillation vials, 8 ml of Formula 947 scintillation fluid added, and the vials left overnight, shaken, and counted in a liquid scintillation counter at 40% efficiency.
The IC50 was calculated by weighted nonlinear least squares curve-fitting to the mass-action equation. [formula] where Y is cpm bound
T is cpm total binding without drug
S is cpm specific binding without drug
D is the concentration of drug
K is the IC50 of the drug
Weighting factors were calculated under the assumption that the standard deviation was proportional to the predicted value of Y. Nonspecific binding was treated as a very large (infinite) concentration of drug in the computer analysis.

[3] = Mouse Activity and Screen Test (MAST), screen test failure (ST); format: in vivo, mouse (Swiss-Webster, male); conditions: Mus musculus, ip; lowest dose at which an A rating is achieved; screen test; intraperitoneal, 1 h prior to testing; read-out: MAST ST LAD
Description: Treatments are administered intraperitoneally one hour prior to testing. […] Compounds are dissolved or suspended in 0.2% Methocel. Control animals are injected with Methocel.
The compounds are identified in the Examples.

T2 sequence (P30543 whole entry): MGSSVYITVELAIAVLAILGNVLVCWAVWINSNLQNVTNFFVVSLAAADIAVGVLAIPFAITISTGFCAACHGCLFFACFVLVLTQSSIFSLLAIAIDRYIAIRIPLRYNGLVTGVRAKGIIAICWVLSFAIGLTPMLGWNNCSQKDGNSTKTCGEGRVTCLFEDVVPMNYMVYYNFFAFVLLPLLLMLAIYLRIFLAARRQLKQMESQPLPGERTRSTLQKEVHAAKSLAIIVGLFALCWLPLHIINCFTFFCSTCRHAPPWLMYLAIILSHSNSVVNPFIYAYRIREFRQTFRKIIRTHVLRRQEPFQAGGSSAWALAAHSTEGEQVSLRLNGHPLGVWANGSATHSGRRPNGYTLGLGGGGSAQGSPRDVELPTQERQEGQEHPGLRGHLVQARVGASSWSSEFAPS

For `OC[C@H]1O[C@@H](n2cnc3c(NCC(c4ccc(F)cc4)c4ccc(F)cc4)ncnc32)[C@H](O)[C@@H]1O` [Example 13, N^6-(2,2-Di-(4-fluorophenyl)ethyl)adenosine], which IC50 [1] is on record?
The IC50 was 0.016 µM.

And the IC50 [2]?
The IC50 was 0.094 µM.

And the minimal effective dose [3]?
The minimal effective dose was greater than 100 mg/kg.

Which IC50 [1] does the source give for `OC[C@H]1O[C@@H](n2cnc3c(NCC(c4ccccc4)c4ccc(Cl)cc4)ncnc32)[C@H](O)[C@@H]1O` (stereo partly drawn) [Example 15, N^6-(2-(4-Chlorophenyl)-2-phenylethyl)adenosine] here?
The IC50 was 0.027 µM.

And the IC50 [2]?
The IC50 was 0.09 µM.

And the minimal effective dose [3]?
The minimal effective dose was greater than 100 mg/kg.

For `Nc1nc(NCC(c2ccccc2)c2ccc(Cl)cc2)c2ncn([C@@H]3O[C@H](CO)[C@@H](O)[C@H]3O)c2n1` (stereo partly drawn) [Example 16], which IC50 [1] is on record?
The IC50 was 0.223 µM.

And the IC50 [2]?
Its IC50 is 0.319 µM.

And the minimal effective dose [3]?
The minimal effective dose was greater than 100 mg/kg.

For `OC[C@H]1O[C@@H](n2cnc3c(NCC(c4ccc(Cl)cc4)c4ccc(Cl)cc4)ncnc32)[C@H](O)[C@@H]1O` [Example 17, N^6-(2,2-Di(4-chlorophenyl)ethyl)adenosine], which IC50 [1] is on record?
Its IC50 is 0.512 µM.

And the IC50 [2]?
The IC50 was 0.713 µM.

What about the minimal effective dose [3] of the same molecule?
Its minimal effective dose is greater than 100 mg/kg.

With `COc1ccc(C(CNc2ncnc3c2ncn3[C@@H]2O[C@H](CO)[C@@H](O)[C@H]2O)c2ccccc2)cc1` (stereo partly drawn) [Example 19, N^6-(2-(4-Methoxyphenyl)-2-phenylethyl)adenosine] as the molecule, how does the IC50 [1] read?
The IC50 was 0.021 µM.

What about the IC50 [2] of the same molecule?
Its IC50 is 0.056 µM.

And the minimal effective dose [3]?
Its minimal effective dose is 30 mg/kg.

With `CC(CNc1nc(N)nc2c1ncn2[C@@H]1O[C@H](CO)[C@@H](O)[C@H]1O)(c1ccccc1)c1ccccc1` [Example 21, N^6-(2,2-Diphenylpropyl)-2-aminoadenosine] as the molecule, how does the IC50 [1] read?
The IC50 was 0.285 µM.

What about the IC50 [2] of the same molecule?
Its IC50 is 0.47 µM.

And the minimal effective dose [3]?
Its minimal effective dose is greater than 100 mg/kg.

Which IC50 [1] does the source give for `OC[C@H]1O[C@@H](n2cnc3c(NCC(O)(c4ccccc4)c4ccccc4)ncnc32)[C@H](O)[C@@H]1O` [Example 22, N^6-(2,2-Diphenyl-2-hydroxyethyl)adenosine] here?
The IC50 was 0.012 µM.

And the IC50 [2]?
Its IC50 is 0.094 µM.

And the minimal effective dose [3]?
Its minimal effective dose is 100 mg/kg.

Which IC50 [1] does the source give for `Nc1nc(NCC(O)(c2ccccc2)c2ccccc2)c2ncn([C@@H]3O[C@H](CO)[C@@H](O)[C@H]3O)c2n1` [Example 23, N^6-(2,2-Diphenyl-2-hydroxyethyl)-2-aminoadenosine] here?
The IC50 was 0.069 µM.

And the IC50 [2]?
The IC50 was 0.293 µM.

And the minimal effective dose [3]?
The minimal effective dose was greater than 100 mg/kg.

With `COC(=O)C(CNc1ncnc2c1ncn2[C@@H]1O[C@H](CO)[C@@H](O)[C@H]1O)(c1ccccc1)c1ccccc1` [Example 24, N^6-(2-Carbomethoxy-2,2-diphenylethyl)adenosine] as the molecule, how does the IC50 [1] read?
Its IC50 is 0.079 µM.

And the IC50 [2]?
The IC50 was 4.6 µM.

And the minimal effective dose [3]?
Its minimal effective dose is greater than 30 mg/kg.

With `CC(=O)OC[C@H]1O[C@@H](n2cnc3c(NCC(c4ccccc4)c4ccccc4)ncnc32)[C@H](OC(C)=O)[C@@H]1OC(C)=O` [Example 25, 2',3',5'-Tri-O-acetyl-N^6-(2,2-diphenylethyl)adenosine] as the molecule, how does the IC50 [1] read?
The IC50 was 0.053 µM.

And the IC50 [2]?
Its IC50 is 0.166 µM.

What about the minimal effective dose [3] of the same molecule?
The minimal effective dose was greater than 100 mg/kg.

For `O=C(OC[C@H]1O[C@@H](n2cnc3c(NCC(c4ccccc4)c4ccccc4)ncnc32)[C@H](OC(=O)c2ccccc2)[C@@H]1OC(=O)c1ccccc1)c1ccccc1` [Example 26, 2',3',5'-Tri-O-benzoyl-N^6-(2,2-diphenylethyl)adenosine], which IC50 [1] is on record?
Its IC50 is 1.23 µM.

And the IC50 [2]?
Its IC50 is 3.84 µM.

And the minimal effective dose [3]?
Its minimal effective dose is greater than 100 mg/kg.

For `CC(=O)OC[C@H]1O[C@@H](n2cnc3c(NCC(c4ccccc4)c4ccccc4)nc(Cl)nc32)[C@H](OC(C)=O)[C@@H]1OC(C)=O` [Example 27, 2',3',5'-Tri-O-acetyl-N^6-(2,2-diphenylethyl)-2-chloroadenosine], which IC50 [1] is on record?
The IC50 was 30.9 µM.

And the IC50 [2]?
Its IC50 is 6.82 µM.

And the minimal effective dose [3]?
Its minimal effective dose is greater than 100 mg/kg.

With `CC1(C)O[C@@H]2[C@H](O1)[C@@H](CO)O[C@H]2n1cnc2c(NCC(c3ccccc3)c3ccccc3)ncnc21` [Example 29, 2',3'-O-Isopropylidene-N^6-(2,2-diphenylethyl)adenosine] as the molecule, how does the IC50 [1] read?
Its IC50 is 0.242 µM.

What about the IC50 [2] of the same molecule?
The IC50 was 0.919 µM.

What about the minimal effective dose [3] of the same molecule?
Its minimal effective dose is greater than 100 mg/kg.
